# Read-outs that look alike come from different tables or passages of the source.
# What was measured:
# [1] = target: E. coli β-glucuronidase (eβG) (Escherichia coli, UniProt P05804); test: Inhibition of purified recombinant eβG activity (pNPG substrate, OD420); format: biochemical; settings: for Inhibition efficacy of eβG activity compared with βG-Inh: FIG. 1; for remaining activity at 10 µM: read-out: Percent activity of E. coli-glucuronidase at 10 μM (%); for Selective inhibition of eβG versus hβG (in words): recombinant eβG and hβG, serial dilution of inhibitors (FIG. 1)
# Method: (§1) The pyrazolo[4,3-c]quinoline derivatives were examined for their inhibition against eβG or hβG activity. Purified recombinant eβG or hβG proteins were incubated with serial dilution of the inhibitors, respectively. The βG activity was determined by color development of a βG substrate, pNPG. The hydrolysis product of pNPG, PNP was measured by OD420.
# [2] = target: T1, human liver-glucuronidase (hβG) (Homo sapiens, UniProt P08236); test: Inhibition of purified recombinant hβG activity (pNPG substrate, OD420); format: biochemical; settings: read-out: Percent activity of human liver-glucuronidase at 10 μM (%)
# T1 sequence (P08236 23-651): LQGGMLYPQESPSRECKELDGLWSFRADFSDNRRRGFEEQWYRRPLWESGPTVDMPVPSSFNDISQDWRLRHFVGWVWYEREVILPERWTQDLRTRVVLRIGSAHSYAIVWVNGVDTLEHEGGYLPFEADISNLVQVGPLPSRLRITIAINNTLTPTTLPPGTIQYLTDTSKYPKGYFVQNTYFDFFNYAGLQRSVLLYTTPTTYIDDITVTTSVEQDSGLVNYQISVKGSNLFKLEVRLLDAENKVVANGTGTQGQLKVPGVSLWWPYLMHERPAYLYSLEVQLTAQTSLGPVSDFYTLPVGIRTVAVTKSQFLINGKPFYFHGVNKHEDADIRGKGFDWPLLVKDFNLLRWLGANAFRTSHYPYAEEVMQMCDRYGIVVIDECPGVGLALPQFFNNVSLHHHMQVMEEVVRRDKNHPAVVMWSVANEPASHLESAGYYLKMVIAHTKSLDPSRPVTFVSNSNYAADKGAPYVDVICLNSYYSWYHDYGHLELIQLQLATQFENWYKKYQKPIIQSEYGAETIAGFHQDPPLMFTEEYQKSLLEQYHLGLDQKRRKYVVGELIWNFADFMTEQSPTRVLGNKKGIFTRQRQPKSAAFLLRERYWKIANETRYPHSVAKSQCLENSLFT
# Method: as §1
# [3] = target: T2, endogenous eβG activity (Escherichia coli, UniProt P05804); test: Endogenous β-glucuronidase activity assay in BL21 E. coli cells; format: cell-based; settings: at both low (10 μM) or high concentration (50 μM) (FIG. 2)
# T2 construct: endogenous in cells; host or cells: BL21 E. coli
# Method: The pyrazolo[4,3-c]quinoline derivatives were examined for their inhibition against endogenous eβG activity. This assay is similar with the in vitro assay. BL21 E. coli cells were grown to an OD600 of 0.35 in LB medium. E. coli were 4 times diluted and incubated with each inhibitor. The endogenous eβG activity was measured by detecting PNP as described.
# [4] = system: TOP10 E. coli cells; test: E. coli growth assay (OD600); format: cell-based; settings: 100 μM; OD600 at 6 hour after treatment; TOP10 E. coli (FIG. 4)
# Method: The pyrazolo[4,3-c]quinoline derivatives were examined for effects on the growth of E. coli. TOP10 E. coli cells were grown to an OD600 of 0.35 in LB medium and treated with each inhibitor. E. coli cell cultures were monitored by reading OD600 at 6 hour after treatment. The cell viability were compared to non-inhibitor control group and shown in % control.
# [5] = system: intestinal βG activity; test: In vivo image of intestinal β-glucuronidase activity (FDGlcU pro-probe); set-up: species or system Balb/cJ mice; settings: mice, oral 60 μg/200 μl per day for five days; FDGlcU on sixth day (FIG. 5A)
# Method: 17 (TCH-3511) or 32 (TCH-3510) was examined for its inhibition against intestinal βG activity in mice by in vivo image of eβG activity. 5 (TCH-3562), 17 (TCH-3511) or 32 (TCH-3510) was dissolved in ddH2O. Healthy 6-10 week old female Balb/cJ mice were oral administrated with 5 (TCH-3562), 17 (TCH-3511), 32 (TCH-3510) or ddH2O per day (60 μg/200 μl) for five consecutive days. FDGlcU, a βG fluorescent pro-probe was oral feed at the sixth day. The βG activity was detected by in vivo optical imaging system.
# [6] = 10 μM, purified recombinant hβG, pNPG, means ± S.D. of at least three separate experiments
# T2 sequence (P05804 whole entry): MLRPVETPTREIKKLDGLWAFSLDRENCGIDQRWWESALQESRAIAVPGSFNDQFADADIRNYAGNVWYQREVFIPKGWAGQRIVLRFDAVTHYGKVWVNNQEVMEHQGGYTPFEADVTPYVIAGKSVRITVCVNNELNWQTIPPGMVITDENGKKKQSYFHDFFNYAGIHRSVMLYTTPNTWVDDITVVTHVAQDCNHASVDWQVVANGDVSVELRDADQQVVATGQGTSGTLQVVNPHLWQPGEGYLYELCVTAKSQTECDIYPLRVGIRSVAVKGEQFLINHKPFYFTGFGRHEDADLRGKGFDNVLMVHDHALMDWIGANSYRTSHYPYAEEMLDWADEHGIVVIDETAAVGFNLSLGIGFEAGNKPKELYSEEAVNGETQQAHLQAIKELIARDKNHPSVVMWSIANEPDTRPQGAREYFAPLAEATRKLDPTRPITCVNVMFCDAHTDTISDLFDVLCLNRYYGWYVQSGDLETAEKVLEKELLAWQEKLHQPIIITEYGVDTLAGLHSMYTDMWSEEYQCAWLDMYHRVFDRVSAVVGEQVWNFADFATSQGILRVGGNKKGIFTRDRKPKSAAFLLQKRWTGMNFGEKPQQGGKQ
# E. coli β-glucuronidase (eβG), sequence (P05804 whole entry): as above
Compound,Inhibition efficacy of eβG activity compared with βG-Inh [1],remaining activity at 10 µM [1] [%],Selective inhibition of eβG versus hβG (in words) [1],remaining activity at 10 µM [2] [%],Inhibition efficacy of endogenous eβG activity compared with βG-Inh [3],Effects on E. coli growth [4],Inhibition of intestinal βG activity (fluorescence signal in the intestine) [5],melting point,"remaining activity at 10 µM [2, 6] [%]"
"COc1ccccc1Nc1nc2ccccc2c2[nH]nc(N)c12 [Compound 32, 3-Amino-4-(2-methoxyphenylamino)-1H-pyrazolo[4,3-c]quinoline]",better inhibition efficacy of eβG activity than βG-Inh,3.5 ± 0.71,selectively inhibited eβG activity but not hβG,103 ± 1.41,better inhibition efficacy of endogenous eβG activity than βG-Inh,no effects on E. coli growth,significantly inhibit intestinal βG activity,210 to 211 °C,
"Nc1n[nH]c2c1c(Nc1ccc(Cl)cc1)nc1ccccc12 [Compound 4, 3-Amino-4-(4-chlorophenylamino)-1H-pyrazolo[4,3-c]quinoline]",better inhibition efficacy of eβG activity than βG-Inh,4.5 ± 0.71,selectively inhibited eβG activity but not hβG,,better inhibition efficacy of endogenous eβG activity than βG-Inh,,,246 to 248 °C,113 ± 2.83
"Nc1n[nH]c2c1c(Nc1ccc(O)cc1)nc1ccccc12 [Compound 15, 3-Amino-4-(4-hydroxyphenylamino)-1H-pyrazolo[4,3-c]quinoline]",,7 ± 1,,,,,,347 to 349 °C,95 ± 4.24
"COc1ccc(NC(=O)Nc2n[nH]c3c2c(=O)[nH]c2ccccc23)cc1 [Compound 35, 1-(4-Methoxyphenyl)-3-(4-oxo-4,5-dihydro-1H-pyrazolo[4,3-c]-quinolin-3-yl)urea]",,52 ± 4.24,,,,,,224 to 225 °C,81.5 ± 0.71
"Cc1ccc(Nc2nc3ccccc3c3[nH]nc(N)c23)cc1 [Compound 5, 3-Amino-4-(4-methylphenylamino)-1H-pyrazolo[4,3-c]quinoline]",better inhibition efficacy of eβG activity than βG-Inh,4.5 ± 0.71,selectively inhibited eβG activity but not hβG,,better inhibition efficacy of endogenous eβG activity than βG-Inh,no effects on E. coli growth,,292 to 294 °C,110 ± 2.12
"Cc1ccccc1Nc1nc2ccccc2c2[nH]nc(N)c12 [Compound 30, N^4-(o-Tolyl)-1H-pyrazolo[4,3-c]quinoline-3,4-diamine]",,17 ± 2.1,,,,,,228 to 230 °C,95.69 ± 0.01
"Cc1ccc(Nc2nc3ccccc3c3[nH]nc(NC(=O)Nc4ccccc4)c23)cc1 [Compound 37, 1-Phenyl-3-[4-(p-tolylamino)-1H-pyrazolo[4,3-c]quinolin-3-yl]urea]",,3 ± 1,,,,,,212 to 213 °C,82 ± 1.41
"COc1ccc(NC(=O)Nc2n[nH]c3c2c(Nc2ccc(C)cc2)nc2ccccc23)cc1 [Compound 39, 1-(4-Methoxyphenyl)-3-[4-(p-tolylamino)-1H-pyrazolo[4,3-c]-quinolin-3-yl]urea]",,3.5 ± 0.71,,,,,,163 to 164 °C,87.5 ± 2.12
"Nc1n[nH]c2c1c(Nc1ccccc1Cl)nc1ccccc12 [Compound 31, N^4-(2-Chlorophenyl)-1H-pyrazolo[4,3-c]quinoline-3,4-diamine]",,29.7 ± 3,,,,,,243 to 244 °C,79.81 ± 0.01
"Nc1n[nH]c2c1c(Nc1ccc(Cl)cc1)nc1ccc(Br)cc12 [Compound 12, 8-Bromo-N^4-(4-chlorophenyl)-1H-pyrazolo[4,3-c]quinoline-3,4-diamine]",,5 ± 1,,,,,,264 °C (dec.),79.3 ± 2.63
"COc1ccc(Nc2nc3ccccc3c3[nH]nc(N)c23)cc1 [Compound 19, 3-Amino-4-(4-methoxyphenylamino)-1H-pyrazolo[4,3-c]quinoline]",,3 ± 1,,,,,,228 to 230 °C,102 ± 2.12
"Cc1ccc(Nc2nc3c(C)cccc3c3[nH]nc(N)c23)cc1 [Compound 7, 6-Methyl-N^4-(p-tolyl)-1H-pyrazolo[4,3-c]quinoline-3,4-diamine]",,3 ± 1,,,,,,270 to 271 °C,74 ± 1
